Measurements as given in PMC10681007, “Targeted Degradation of XIAP is Sufficient and Specific to Induce Apoptosis in MYCN-overexpressing High-risk Neuroblastoma” (Cancer Research Communications, 2023).
Structures can show the parent of a compound that is named as a salt. Each block holds one compound with its values, some of them ahead of it.

Key:
Assay type in all cases: cell-based, Human
[1] = test system: THLE3 (liver origin); assay: RealTime-Glo MT cell viability assay, noncancerous normal cells; conditions: Homo sapiens
Procedure: (§1) Cell viability was measured in real time using RealTime-Glo MT Cell Viability Assay as according to manufacturer's instructions from Promega. Cells were seeded at 1 × 10^4 cells per well and treated with a range of doses of indicated antagonists, followed by continuous bioluminescence reading every 24 hours for 3 days using luminescent plate reader, Varioskan (SkanIT software). IC50 was determined using GraphPad Prism software.
(§2) To determine their efficacy in neuroblastoma, a panel of neuroblastoma cell lines including neuroblastoma patient-derived cell lines and noncancerous normal tissue-derived cell lines were treated with increasing doses of each antagonist (0–100 µmol/L), followed by real-time measurement of cell viability every 24 for 72 hours.
(§3) To evaluate this, noncancerous normal tissue-derived cell lines THLE3 and HS5 were utilized to evaluate toxicity and tolerability.

[2] = test system: HS5 (bone marrow origin); assay: as above; conditions: Homo sapiens
Procedure: as §1, §2, §3

[3] = test system: NLF; assay: RealTime-Glo MT cell viability assay; conditions: Homo sapiens
Procedure: as §1, §2

[4] = test system: CHP212; assay: RealTime-Glo MT cell viability assay; conditions: Homo sapiens, CHP-212
Procedure: as §1, §2

[5] = test system: SK-N-AS; assay: RealTime-Glo MT cell viability assay; conditions: Homo sapiens
Procedure: as §1, §2

[6] = test system: KELLY; assay: RealTime-Glo MT cell viability assay; conditions: Homo sapiens
Procedure: as §1, §2

[7] = test system: BE(2)-C; assay: RealTime-Glo MT cell viability assay; conditions: Homo sapiens
Procedure: as §1, §2

[8] = test system: NBL27-0218A patient-derived neuroblastoma cells; assay: RealTime-Glo MT cell viability assay; conditions: Homo sapiens, Neuroblastoma cell
Procedure: as §1, §2

[9] = test system: SK-N-SH; assay: RealTime-Glo MT cell viability assay; conditions: Homo sapiens
Procedure: as §1, §2

[10] = test system: NBL16-0118 patient-derived neuroblastoma cells; assay: RealTime-Glo MT cell viability assay; conditions: Homo sapiens, Neuroblastoma cell
Procedure: as §1, §2

[11] = test system: IMR-32; assay: RealTime-Glo MT cell viability assay; conditions: Homo sapiens
Procedure: as §1, §2

[12] = test system: NBL01-1116 patient-derived neuroblastoma cells; assay: RealTime-Glo MT cell viability assay; conditions: Homo sapiens, Neuroblastoma cell
Procedure: as §1, §2

[13] = test system: NBL-07-0317 patient-derived neuroblastoma cells; assay: RealTime-Glo MT cell viability assay; conditions: Homo sapiens, Neuroblastoma cell
Procedure: as §1, §2

[14] = test system: NB1; assay: RealTime-Glo MT cell viability assay; conditions: Homo sapiens
Procedure: as §1, §2

[15] = test system: THLE3 and HS5; assay: Toxicity and tolerability in noncancerous normal tissue-derived cell lines; conditions: THLE3 and HS5 versus neuroblastoma cells
Procedure: as §1
To evaluate this, noncancerous normal tissue-derived cell lines THLE3 and HS5 were utilized to evaluate toxicity and tolerability. […] On the basis of their overall potency and specificity toward neuroblastoma cells over noncancerous normal cells, A4, B3, and BV6 were selected as the more efficacious antagonists to be studied further in subsequent experiments (Fig. 2A).

[16] = test system: neuroblastoma cells across the panel of cell lines; assay: Cell viability, IC50 range across the panel; conditions: Homo sapiens, Neuroblastoma cell; range over cell lines, doses 0–100 µmol/L, viability every 24 for 72 hours; read-out: IC50 against neuroblastoma cells across the panel of cell lines
Procedure: as §1, with “([…]” for “(SkanIT”, “software. To determine their efficacy in neuroblastoma, a panel of neuroblastoma cell lines including neuroblastoma patient-derived cell lines and noncancerous normal tissue-derived cell lines were treated with increasing doses of each antagonist (0-100 μmol/L), followed by real-time measurement of cell viability every 24 for 72 hours. […] Supplementary Table S2; Fig. 2A). […] Fig. 2A).” for “software.”

[17] = test system: KELLY; assay: Drug interactions assay (Chou-Talalay CI, DRI); conditions: vincristine dose axis, 48 hours
Procedure: (§4) Drug interactions between XIAP-specific antagonist A4 and vincristine or topotecan were determined using the combination index (CI) by Chou and Talalay which was established on the basis of the mass-action law principle to derive the median-effect equation ([25]). […] Cell viability was measured and CI and dose reduction index (DRI) values were quantified using the CompuSyn software by Chou–Talalay. Areas under the dose–response curves were calculated using the trapezoidal method and compared using paired t test.
(§5) For treatment of high-risk neuroblastoma, current standard-of-care utilizes intensive multimodal therapy involving combinations of multiple cytotoxic agents. […] To analyze potential drug interactions, treatment of BE(2)-C and KELLY cells with A4 in combination with either vincristine or topotecan was examined. Using Chou–Talalay method, the drug interaction effect/type determined by the drug combination (CI) index is as follows: CI <1 (synergistic effect); CI = 1 (additive effect); CI >1 (antagonistic effect).
(§6) CI was generated using CompuSyn software by Chou–Talalay ([25]). CI60–90 represents the average CI at 60%–90% cell death. CI <1 denotes synergistic effect; CI = 1 denotes addictive effect and CI >1 denotes antagonistic effect. […] DRI was generated using CompuSyn software by Chou–Talalay. DRI60–90 represents the average DRI at 60%–90% cell death. DRI <1 denotes unfavorable dose reduction and DRI >1 denotes favorable dose reduction.

[18] = test system: BE(2)-C; assay: Drug interactions assay (Chou-Talalay CI, DRI); conditions: vincristine dose axis, 48 hours
Procedure: as §4, §5, §6

[19] = test system: SK-N-AS; assay: Drug interactions assay (Chou-Talalay); conditions: in combination with A4
Procedure: as §4
DRI <1 denotes unfavorable dose reduction and DRI >1 denotes favorable dose reduction.

IC50 ([5]; 24 hours): 34 µM | IC50 ([5]; 48 hours): 22.5 µM | IC50 ([5]; 72 hours): 15.7 µM | IC50 ([8]; 24 hours): 39 µM | IC50 ([8]; 48 hours): 32.5 µM | IC50 ([8]; 72 hours): 28.5 µM | IC50 ([9]; 24 hours): 55.4 µM | IC50 ([9]; 48 hours): 44 µM | IC50 ([9]; 72 hours): 33 µM | IC50 ([10]; NBL16-0118, 24 hours): 34 µM | IC50 ([10]; NBL16-0118, 48 hours): 27.5 µM | IC50 ([10]; NBL16-0118, 72 hours): 22.5 µM | IC50 ([12]; NBL01-1116, 24 hours): 42 µM | IC50 ([12]; NBL01-1116, 48 hours): 36.4 µM | IC50 ([12]; NBL01-1116, 72 hours): 36 µM | IC50 ([13]; NBL-07-0317, 24 hours): 33.6 µM | IC50 ([13]; NBL-07-0317, 48 hours): 31.8 µM | IC50 ([13]; NBL-07-0317, 72 hours): 30 µM | IC50 [16]: 20 to 60 µM
Compound: CN[C@@H](C)C(=O)N[C@H](C(=O)N1CCC[C@H]1c1nc(C(=O)c2ccc(F)cc2)cs1)C1CCCCC1 [LCL161]
IC50 ([1]; THLE3, 24 hours): > 60 µM | IC50 ([1]; THLE3, 48 hours): 24 µM | IC50 ([1]; THLE3, 72 hours): 14.5 µM | IC50 ([2]; HS5, 24 hours): 30 µM | IC50 ([2]; HS5, 48 hours): 18 µM | IC50 ([2]; HS5, 72 hours): 15.5 µM | IC50 ([3]; 24 hours): 32.8 µM | IC50 ([3]; 48 hours): 30.2 µM | IC50 ([3]; 72 hours): 28.5 µM | IC50 ([4]; CHP212, 24 hours): 42 µM | IC50 ([4]; CHP212, 48 hours): 33 µM | IC50 ([4]; CHP212, 72 hours): 31.2 µM | IC50 ([6]; 24 hours): 48.2 µM | IC50 ([6]; 48 hours): 27.6 µM | IC50 ([6]; 72 hours): 21.2 µM | IC50 ([7]; 24 hours): > 60 µM | IC50 ([7]; 48 hours): 42.5 µM | IC50 ([7]; 72 hours): 32.5 µM | IC50 ([11]; IMR-32, 24 hours): > 60 µM | IC50 ([11]; IMR-32, 48 hours): 30 µM | IC50 ([11]; IMR-32, 72 hours): 19 µM | IC50 ([14]; NB1, 24 hours): > 60 µM | IC50 ([14]; NB1, 48 hours): 46.5 µM | IC50 ([14]; NB1, 72 hours): 27.4 µM | toxicity to noncancerous cells [15]: more toxic toward noncancerous cells than neuroblastoma cells

IC50 ([5]; 24 hours): 68.5 µM | IC50 ([5]; 48 hours): 50.5 µM | IC50 ([5]; 72 hours): 85 µM | IC50 ([8]; 24 hours): > 100 µM | IC50 ([8]; 48 hours): > 100 µM | IC50 ([8]; 72 hours): 50 µM | IC50 ([9]; 24 hours): > 100 µM | IC50 ([9]; 48 hours): > 100 µM | IC50 ([9]; 72 hours): 35.5 µM | IC50 ([10]; NBL16-0118, 24 hours): > 100 µM | IC50 ([10]; NBL16-0118, 48 hours): > 100 µM | IC50 ([10]; NBL16-0118, 72 hours): > 100 µM | IC50 ([12]; NBL01-1116, 24 hours): > 100 µM | IC50 ([12]; NBL01-1116, 48 hours): > 100 µM | IC50 ([12]; NBL01-1116, 72 hours): > 100 µM | IC50 ([13]; NBL-07-0317, 24 hours): > 100 µM | IC50 ([13]; NBL-07-0317, 48 hours): 93 µM | IC50 ([13]; NBL-07-0317, 72 hours): > 100 µM
Compound: CN[C@@H](C)C(=O)N[C@H]1CN(C(=O)CC(C)C)CC[C@H]2CC[C@@H](C(=O)NC(c3ccccc3)c3ccccc3)N2C1=O [Debio 1143]
IC50 ([1]; THLE3, 24 hours): > 100 µM | IC50 ([1]; THLE3, 48 hours): 73 µM | IC50 ([1]; THLE3, 72 hours): 80 µM | IC50 ([2]; HS5, 24 hours): > 100 µM | IC50 ([2]; HS5, 48 hours): 90 µM | IC50 ([2]; HS5, 72 hours): > 100 µM | IC50 ([3]; 24 hours): > 100 µM | IC50 ([3]; 48 hours): 78.5 µM | IC50 ([3]; 72 hours): > 100 µM | IC50 ([4]; CHP212, 24 hours): > 100 µM | IC50 ([4]; CHP212, 48 hours): > 100 µM | IC50 ([4]; CHP212, 72 hours): > 100 µM | IC50 ([6]; 24 hours): 91 µM | IC50 ([6]; 48 hours): 73.5 µM | IC50 ([6]; 72 hours): > 100 µM | IC50 ([7]; 24 hours): > 100 µM | IC50 ([7]; 48 hours): > 100 µM | IC50 ([7]; 72 hours): > 100 µM | IC50 ([11]; IMR-32, 24 hours): > 100 µM | IC50 ([11]; IMR-32, 48 hours): > 100 µM | IC50 ([11]; IMR-32, 72 hours): 64.5 µM | IC50 ([14]; NB1, 24 hours): > 100 µM | IC50 ([14]; NB1, 48 hours): > 100 µM | IC50 ([14]; NB1, 72 hours): 64.5 µM | toxicity to noncancerous cells [15]: more toxic toward noncancerous cells than neuroblastoma cells

Compound: CC[C@]1(O)C[C@H]2CN(CCc3c([nH]c4ccccc34)[C@@](C(=O)OC)(c3cc4c(cc3OC)N(C=O)[C@H]3[C@@](O)(C(=O)OC)[C@H](OC(C)=O)[C@]5(CC)C=CCN6CC[C@]43[C@@H]65)C2)C1 [Vincristine, Vincristine sulfate]
AUC of dose–response curve [17]: 37.5±3.9 pM* luminescence | AUC of dose–response curve [18]: 9.8±0.2 pM* luminescence | drug interaction with A4 [19]: only additive effect
